# Reference: PubChem BioAssay AID1259408 (Genetic Toxicology Data Bank (GENE-TOX), 2018)
# Activity calls are given as the source filed them. How the calls were made is not given here.
# Test system: GENE-TOX genotoxicity assays, various organisms and cells
# Test: GENE-TOX mutagenicity studies
# From the text: GENE-TOX provides genetic toxicology (mutagenicity) test data from expert peer review of open scientific literature for more than 3,000 chemicals from the United States Environmental Protection Agency (EPA). GENE-TOX was established to select assay systems for evaluation, review data in the scientific literature, and recommend proper testing protocols and evaluation procedures for these systems.
# GENE-TOX covers the years 1991 - 1998. It is no longer updated.
# This is an archive assay for GENE-TOX mutagenicity studies.
structure (smiles),measurement,setting,value
CCN(CC)N=O,mutagenic call,"Species/Cell Type: Chinese hamster lung (V79) cells, Assay Type: Forward gene mutation at the HPRT or ouabain locus, Assay Code: V79+, Evaluation Type: Evaluation A (Pre-1980)",active; positive
same,mutagenic call,"Species/Cell Type: Chinese hamster ovary (CHO) cells, Assay Type: Forward gene mutation at the HPRT locus, Assay Code: CHO+*, Activation: With metabolic activation, Evaluation Type: Evaluation B (Post-1980)",active; positive
same,mutagenic call,"Species/Cell Type: Drosophila melanogaster, Assay Type: Sex-linked recessive lethal gene mutation, Assay Code: SRL+, Evaluation Type: Evaluation A (Pre-1980)",active; positive
same,mutagenic call,"Species/Cell Type: Drosophila melanogaster, Sex: Male, Assay Type: Heritable translocation test, chromosome aberrations, Assay Code: DHTT, Evaluation Type: Evaluation A (Pre-1980)",no conclusion
same,mutagenic call,"Species/Cell Type: Escherichia coli polA (W3110 vs P3478), Assay Type: Rec-assay, DNA effects (bacterial DNA repair), Assay Code: RE2+, Evaluation Type: Evaluation A (Pre-1980)",active; positive
same,mutagenic call,"Species/Cell Type: Escherichia coli polA (W3119 vs P3478), Assay Type: Rec-assay, DNA effects (bacterial DNA repair), Assay Code: RE1-, Evaluation Type: Evaluation A (Pre-1980)",inactive; negative
same,mutagenic call,"Species/Cell Type: Fischer rat embryo (RLV/1706) cells, Assay Type: Cell transformation, viral enhanced, Assay Code: CTR+, Evaluation Type: Evaluation A (Pre-1980)",active; positive
same,mutagenic call,"Species/Cell Type: Human diploid fibroblasts, Assay Type: Unscheduled DNA synthesis (UDS) in vitro, DNA effects, Assay Code: UDHT, Evaluation Type: Evaluation A (Pre-1980)",no conclusion
same,mutagenic call,"Species/Cell Type: Human lymphocytes, Assay Type: Sister-chromatid exchange (SCE) in vitro, Assay Code: SCL+D*, Activation: With metabolic activation, Dose Response: With dose response, Evaluation Type: Evaluation B (Post-1980)",active; positive
same,mutagenic call,"Species/Cell Type: Human lymphocytes, Assay Type: Sister-chromatid exchange (SCE) in vitro, Assay Code: SCL-, Evaluation Type: Evaluation A (Pre-1980)",inactive; negative
same,mutagenic call,"Species/Cell Type: Human, Assay Type: Sister-chromatid exchange (SCE) in vitro, Assay Code: SC1+D*, Activation: With metabolic activation, Dose Response: With dose response, Evaluation Type: Evaluation B (Post-1980)",active; positive
same,mutagenic call,"Species/Cell Type: Human, Assay Type: Sister-chromatid exchange (SCE) in vitro, Assay Code: SC1-, Evaluation Type: Evaluation A (Pre-1980)",inactive; negative
same,mutagenic call,"Species/Cell Type: Mammalian polychromatic erythrocytes, Assay Type: Micronucleus test, chromosome aberrations, Assay Code: MNTT, Evaluation Type: Evaluation A (Pre-1980)",no conclusion
same,mutagenic call,"Species/Cell Type: Mouse germ cells, Sex: Male, Assay Type: Unscheduled DNA synthesis (UDS) in vivo, DNA effects, Assay Code: UDT-, Evaluation Type: Evaluation A (Pre-1980)",inactive; negative
same,mutagenic call,"Species/Cell Type: Mouse lymphoma (L5178Y) cells, Assay Type: Forward gene mutation at the thymidine kinase (TK) locus, chromosome aberrations, Assay Code: L51+*, Activation: With metabolic activation, Evaluation Type: Evaluation A (Pre-1980)",active; positive
same,mutagenic call,"Species/Cell Type: Mouse, Sex: Female, Assay Type: Spot test, gene mutation, Assay Code: MST-, Evaluation Type: Evaluation A (Pre-1980)",inactive; negative
same,mutagenic call,"Species/Cell Type: Mouse, Sex: Male, Assay Type: Specific locus test, gene mutation, Assay Code: SLT-, Evaluation Type: Evaluation A (Pre-1980)",inactive; negative
same,mutagenic call,"Species/Cell Type: Neurospora crassa, Assay Type: Forward gene mutation, Assay Code: NEF+, Evaluation Type: Evaluation A (Pre-1980)",active; positive
same,mutagenic call,"Species/Cell Type: Neurospora crassa, Assay Type: Reverse gene mutation, Assay Code: NER+, Evaluation Type: Evaluation A (Pre-1980)",active; positive
same,mutagenic call,"Species/Cell Type: Nonhuman, Assay Type: Chromosome aberrations in vitro, Assay Code: CY&+*, Activation: With metabolic activation, Evaluation Type: Evaluation A (Pre-1980)",active; positive
same,call,"Species/Cell Type: Nonhuman, Assay Type: In vivo carcinogenicity studies, Assay Code: CCG+, Evaluation Type: Evaluation A (Pre-1980)",active; positive
same,mutagenic call,"Species/Cell Type: Nonhuman, Assay Type: Sister-chromatid exchange (SCE) in vitro, Assay Code: SC2+D, Dose Response: With dose response, Evaluation Type: Evaluation A (Pre-1980)",active; positive
same,mutagenic call,"Species/Cell Type: Nonhuman, Assay Type: Sister-chromatid exchange (SCE) in vivo, Assay Code: SC3+, Evaluation Type: Evaluation B (Post-1980)",active; positive
same,mutagenic call,"Species/Cell Type: Nonhuman, Assay Type: Sister-chromatid exchange (SCE) in vivo, Assay Code: SC3+D, Dose Response: With dose response, Evaluation Type: Evaluation A (Pre-1980)",active; positive
same,mutagenic call,"Species/Cell Type: Rat primary hepatocytes, Assay Type: Unscheduled DNA synthesis (UDS) in vitro, DNA effects, Assay Code: UDP+, Evaluation Type: Evaluation A (Pre-1980)",active; positive
same,mutagenic call,"Species/Cell Type: Rodents, Sex: Male, Assay Type: Dominant lethal test, Assay Code: DLT-, Evaluation Type: Evaluation A (Pre-1980)",inactive; negative
same,mutagenic call,"Species/Cell Type: Saccharomyces cerevisiae, Assay Type: Forward gene mutation, Assay Code: YEF+*, Activation: With metabolic activation, Evaluation Type: Evaluation A (Pre-1980)",active; positive
same,mutagenic call,"Species/Cell Type: Saccharomyces cerevisiae, Assay Type: Mitotic recombination or gene conversion, Assay Code: YEH+, Evaluation Type: Evaluation A (Pre-1980)",active; positive
same,mutagenic call,"Species/Cell Type: Salmonella typhimurium (one or more of the five standard strains: TA98, TA100, TA1535, TA1537, and TA1538), Assay Type: Histidine reverse gene mutation, Ames assay, Assay Code: SAL+*, Activation: With metabolic activation, Evaluation Type: Evaluation A (Pre-1980)",active; positive
same,mutagenic call,"Species/Cell Type: Salmonella typhimurium, Escherichia coli, Serratia marcesens, Chinese hamster lung (V79) cells, Assay Type: Forward and reverse gene mutation, host-mediated assay, Assay Code: HM1+, Evaluation Type: Evaluation A (Pre-1980)",active; positive
same,mutagenic call,"Species/Cell Type: Syrian hamster embryo (SHE) cells, Assay Type: Cell transformation, clonal assay, Assay Code: CTC+*, Activation: With metabolic activation, Evaluation Type: Evaluation A (Pre-1980)",active; positive
